# Measured values from the supplement of paper PMC10307832.
# Tests used:
# Test in all cases: relative viability (nuclei count vs DMSO), 5 days (fraction); higher = more cells survive
# A-427 = tested on: A-427
# Outline: (§1)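 For relative viability, nuclei counts in treated wells were divided by those in vehicle wells. Lung cancer cell lines had been pin-tool dosed in 1536-well plates the day after seeding and cultured for 5 days, then fixed and stained in one step (final 0.05% Triton X-100, 1% formaldehyde, 1 ug/ml Hoechst) and imaged at 4×. Doses were one drug alone or a fixed anchor-drug dose plus five library-drug doses (not always all listed) in √10 steps, and values are duplicate-plate medians.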
# COR-L 105 = tested on: COR-L 105
# Outline: as §1
# EPLC-272H = tested on: EPLC-272H
# Outline: as §1
# HCC-366 = tested on: HCC-366
# Outline: as §1
# HCC-78 = tested on: HCC-78
# Outline: as §1
# HOP-62 = tested on: HOP-62
# Outline: as §1
# LC-2-ad = tested on: LC-2-ad
# Outline: as §1
# LCLC-97TM1 = tested on: LCLC-97TM1
# Outline: as §1
# LU99A = tested on: LU99A
# Outline: as §1
# LXF-289 = tested on: LXF-289
# Outline: as §1
# NCI-H1755 = tested on: NCI-H1755
# Outline: as §1
# NCI-H1792 = tested on: NCI-H1792
# Outline: as §1
# NCI-H1915 = tested on: NCI-H1915
# Outline: as §1
# NCI-H1944 = tested on: NCI-H1944
# Outline: as §1
# NCI-H1975 = tested on: NCI-H1975
# Outline: as §1
# NCI-H2085 = tested on: NCI-H2085
# Outline: as §1
# NCI-H2170 = tested on: NCI-H2170
# Outline: as §1
# NCI-H358 = tested on: NCI-H358
# Outline: as §1
# NCI-H460 = tested on: NCI-H460
# Outline: as §1
# SK-LU-1 = tested on: SK-LU-1
# Outline: as §1
# UMC-11 = tested on: UMC-11
# Outline: as §1
structure (smiles),measurement,setting,value
COc1cc(N2CCC(C(N)=O)CC2)ccc1Nc1nc(N)c(Cl)c(Nc2ccccc2S(=O)(=O)C(C)C)n1 [HG-5-88-01] + C[C@@H](Oc1cc(-c2cnn(C3CCNCC3)c2)cnc1N)c1c(Cl)ccc(F)c1Cl [Crizotinib] (partner 1 µM),relative viability,A-427; first compound 0.04 µM,0.93
same,relative viability,A-427; first compound 0.1265 µM,0.952
same,relative viability,A-427; first compound 0.4 µM,0.951
same,relative viability,A-427; first compound 1.265 µM,0.843
same,relative viability,A-427; first compound 4 µM,0.791
same,relative viability,COR-L 105; first compound 0.04 µM,0.855
same,relative viability,COR-L 105; first compound 0.1265 µM,0.728
same,relative viability,COR-L 105; first compound 0.4 µM,0.519
same,relative viability,COR-L 105; first compound 1.265 µM,0.346
same,relative viability,COR-L 105; first compound 4 µM,0.366
same,relative viability,EPLC-272H; first compound 0.04 µM,0.972
same,relative viability,EPLC-272H; first compound 0.1265 µM,0.909
same,relative viability,EPLC-272H; first compound 0.4 µM,0.964
same,relative viability,EPLC-272H; first compound 1.265 µM,0.704
same,relative viability,EPLC-272H; first compound 4 µM,0.0745
same,relative viability,HCC-366; first compound 0.04 µM,0.642
same,relative viability,HCC-366; first compound 0.1265 µM,0.487
same,relative viability,HCC-366; first compound 0.4 µM,0.468
same,relative viability,HCC-366; first compound 1.265 µM,0.441
same,relative viability,HCC-366; first compound 4 µM,0.198
same,relative viability,HCC-78; first compound 0.04 µM,0.37
same,relative viability,HCC-78; first compound 0.1265 µM,0.319
same,relative viability,HCC-78; first compound 0.4 µM,0.31
same,relative viability,HCC-78; first compound 1.265 µM,0.185
same,relative viability,HCC-78; first compound 4 µM,0.275
same,relative viability,HOP-62; first compound 0.04 µM,0.894
same,relative viability,HOP-62; first compound 0.1265 µM,1.12
same,relative viability,HOP-62; first compound 0.4 µM,0.83
same,relative viability,HOP-62; first compound 1.265 µM,0.925
same,relative viability,HOP-62; first compound 4 µM,0.96
same,relative viability,LC-2-ad; first compound 0.04 µM,0.436
same,relative viability,LC-2-ad; first compound 0.1265 µM,0.496
same,relative viability,LC-2-ad; first compound 0.4 µM,0.5
same,relative viability,LC-2-ad; first compound 1.265 µM,0.4
same,relative viability,LC-2-ad; first compound 4 µM,0.368
same,relative viability,LCLC-97TM1; first compound 0.04 µM,0.461
same,relative viability,LCLC-97TM1; first compound 0.1265 µM,0.379
same,relative viability,LCLC-97TM1; first compound 0.4 µM,0.359
same,relative viability,LCLC-97TM1; first compound 1.265 µM,0.23
same,relative viability,LCLC-97TM1; first compound 4 µM,0.239
same,relative viability,LU99A; first compound 0.04 µM,0.554
same,relative viability,LU99A; first compound 0.1265 µM,0.615
same,relative viability,LU99A; first compound 0.4 µM,0.511
same,relative viability,LU99A; first compound 1.265 µM,0.491
same,relative viability,LU99A; first compound 4 µM,0.423
same,relative viability,LXF-289; first compound 0.04 µM,0.804
same,relative viability,LXF-289; first compound 0.1265 µM,0.797
same,relative viability,LXF-289; first compound 0.4 µM,0.851
same,relative viability,LXF-289; first compound 1.265 µM,0.831
same,relative viability,LXF-289; first compound 4 µM,0.827
same,relative viability,NCI-H1755; first compound 0.1265 µM,0.86
same,relative viability,NCI-H1755; first compound 0.4 µM,0.854
same,relative viability,NCI-H1755; first compound 1.265 µM,0.768
same,relative viability,NCI-H1755; first compound 4 µM,0.933
same,relative viability,NCI-H1792; first compound 0.04 µM,1.11
same,relative viability,NCI-H1792; first compound 0.1265 µM,0.968
same,relative viability,NCI-H1792; first compound 0.4 µM,0.869
same,relative viability,NCI-H1792; first compound 1.265 µM,0.947
same,relative viability,NCI-H1792; first compound 4 µM,0.978
same,relative viability,NCI-H1915; first compound 0.04 µM,0.926
same,relative viability,NCI-H1915; first compound 0.1265 µM,0.885
same,relative viability,NCI-H1915; first compound 0.4 µM,0.906
same,relative viability,NCI-H1915; first compound 1.265 µM,0.928
same,relative viability,NCI-H1915; first compound 4 µM,0.808
same,relative viability,NCI-H1944; first compound 0.04 µM,1.09
same,relative viability,NCI-H1944; first compound 0.1265 µM,1.13
same,relative viability,NCI-H1944; first compound 0.4 µM,1.09
same,relative viability,NCI-H1944; first compound 1.265 µM,0.82
same,relative viability,NCI-H1944; first compound 4 µM,1.06
same,relative viability,NCI-H1975; first compound 0.04 µM,1.03
same,relative viability,NCI-H1975; first compound 0.1265 µM,1.03
same,relative viability,NCI-H1975; first compound 0.4 µM,0.821
same,relative viability,NCI-H1975; first compound 1.265 µM,0.794
same,relative viability,NCI-H1975; first compound 4 µM,0.334
same,relative viability,NCI-H2085; first compound 0.04 µM,0.734
same,relative viability,NCI-H2085; first compound 0.1265 µM,0.856
same,relative viability,NCI-H2085; first compound 0.4 µM,0.873
same,relative viability,NCI-H2085; first compound 1.265 µM,0.694
same,relative viability,NCI-H2085; first compound 4 µM,0.63
same,relative viability,NCI-H2170; first compound 0.04 µM,1.23
same,relative viability,NCI-H2170; first compound 0.1265 µM,1.24
same,relative viability,NCI-H2170; first compound 0.4 µM,1.18
same,relative viability,NCI-H2170; first compound 1.265 µM,0.977
same,relative viability,NCI-H2170; first compound 4 µM,1.28
same,relative viability,NCI-H358; first compound 0.04 µM,0.526
same,relative viability,NCI-H358; first compound 0.1265 µM,0.461
same,relative viability,NCI-H358; first compound 0.4 µM,0.529
same,relative viability,NCI-H358; first compound 1.265 µM,0.318
same,relative viability,NCI-H358; first compound 4 µM,0.235
same,relative viability,NCI-H460; first compound 0.04 µM,0.83
same,relative viability,NCI-H460; first compound 0.1265 µM,1.06
same,relative viability,NCI-H460; first compound 0.4 µM,0.851
same,relative viability,NCI-H460; first compound 1.265 µM,0.843
same,relative viability,NCI-H460; first compound 4 µM,0.0524
same,relative viability,SK-LU-1; first compound 0.04 µM,1.04
same,relative viability,SK-LU-1; first compound 0.1265 µM,0.793
same,relative viability,SK-LU-1; first compound 0.4 µM,0.867
same,relative viability,SK-LU-1; first compound 1.265 µM,0.845
same,relative viability,SK-LU-1; first compound 4 µM,0.595
same,relative viability,UMC-11; first compound 0.04 µM,0.652
same,relative viability,UMC-11; first compound 0.1265 µM,0.581
same,relative viability,UMC-11; first compound 0.4 µM,0.621
same,relative viability,UMC-11; first compound 1.265 µM,0.445
same,relative viability,UMC-11; first compound 4 µM,0.171
